{"source": "patent US9833454B2", "about": "“Difluoromethoxy compound with low bioactivation potential for the reduction of beta-amyloid production” (BRISTOL-MYERS SQUIBB COMPANY, priority 2014, dated 2017)", "key": {"[1]": {"biological_target": "T1, CYP2B6 (Homo sapiens, UniProt P20813)", "T1 sequence (P20813 1-491)": "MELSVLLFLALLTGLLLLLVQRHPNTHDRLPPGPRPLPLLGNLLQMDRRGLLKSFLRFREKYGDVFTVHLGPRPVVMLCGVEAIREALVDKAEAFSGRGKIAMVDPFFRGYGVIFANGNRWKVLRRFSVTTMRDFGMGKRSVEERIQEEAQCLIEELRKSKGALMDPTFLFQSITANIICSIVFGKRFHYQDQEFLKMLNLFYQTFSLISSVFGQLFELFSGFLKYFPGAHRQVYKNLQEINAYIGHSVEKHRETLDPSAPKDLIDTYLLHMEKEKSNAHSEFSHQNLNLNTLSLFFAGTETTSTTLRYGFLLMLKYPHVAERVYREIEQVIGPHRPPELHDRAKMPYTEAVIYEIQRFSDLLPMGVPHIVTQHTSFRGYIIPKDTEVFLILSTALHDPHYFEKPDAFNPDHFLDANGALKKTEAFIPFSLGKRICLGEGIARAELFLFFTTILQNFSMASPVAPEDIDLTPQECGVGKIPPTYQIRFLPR", "assay": "Inhibition of recombinant CYP enzymes (rCYP), CYP2B6", "type": "in vitro ADME", "conditions": "average of two experiments, read-out: rCYP IC50 2B6"}, "[2]": {"biological_target": "CYP2D6 (Homo sapiens, UniProt P10635)", "sequence (P10635 whole entry)": "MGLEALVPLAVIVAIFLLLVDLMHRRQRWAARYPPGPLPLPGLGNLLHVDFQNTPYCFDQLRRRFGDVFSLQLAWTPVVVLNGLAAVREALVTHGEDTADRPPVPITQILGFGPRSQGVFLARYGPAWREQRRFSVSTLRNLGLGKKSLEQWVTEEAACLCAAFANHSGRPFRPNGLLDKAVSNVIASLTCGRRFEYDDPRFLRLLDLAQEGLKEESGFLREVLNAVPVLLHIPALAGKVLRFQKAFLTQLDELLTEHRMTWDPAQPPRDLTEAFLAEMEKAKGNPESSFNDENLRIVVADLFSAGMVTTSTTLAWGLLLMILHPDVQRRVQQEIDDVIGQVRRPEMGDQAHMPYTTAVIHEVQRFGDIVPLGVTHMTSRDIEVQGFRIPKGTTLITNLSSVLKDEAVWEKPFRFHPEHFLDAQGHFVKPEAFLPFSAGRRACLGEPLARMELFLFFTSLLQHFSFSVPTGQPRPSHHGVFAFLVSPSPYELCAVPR", "assay": "Inhibition of recombinant CYP enzymes (rCYP), CYP2D6", "type": "in vitro ADME", "conditions": "average of two experiments, read-out: rCYP IC50 2D6"}, "[3]": {"biological_target": "dopamine receptor 1 (Homo sapiens, UniProt P21728)", "sequence (P21728 whole entry)": "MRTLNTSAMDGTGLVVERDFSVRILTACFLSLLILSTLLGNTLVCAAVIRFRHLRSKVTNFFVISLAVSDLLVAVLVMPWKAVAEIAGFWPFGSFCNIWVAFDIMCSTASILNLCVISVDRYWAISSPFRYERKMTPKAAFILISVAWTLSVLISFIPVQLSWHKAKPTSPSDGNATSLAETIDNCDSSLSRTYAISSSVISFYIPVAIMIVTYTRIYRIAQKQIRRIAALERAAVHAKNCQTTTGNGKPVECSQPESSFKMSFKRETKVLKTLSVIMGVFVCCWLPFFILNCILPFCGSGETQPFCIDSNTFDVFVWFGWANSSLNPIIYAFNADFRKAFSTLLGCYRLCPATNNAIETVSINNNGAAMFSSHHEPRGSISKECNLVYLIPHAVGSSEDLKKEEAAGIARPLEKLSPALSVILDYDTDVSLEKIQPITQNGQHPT", "assay": "In vitro safety: off-target receptor binding and enzyme assays, D1", "conditions": "in vitro safety panel", "experimental": "A range of off-target receptor binding assays and enzyme assays were carried out using conventional methods available in the art."}, "[4]": {"biological_target": "T2, CYP1A2 (Homo sapiens, UniProt P05177)", "T2 sequence (P05177 1-516)": "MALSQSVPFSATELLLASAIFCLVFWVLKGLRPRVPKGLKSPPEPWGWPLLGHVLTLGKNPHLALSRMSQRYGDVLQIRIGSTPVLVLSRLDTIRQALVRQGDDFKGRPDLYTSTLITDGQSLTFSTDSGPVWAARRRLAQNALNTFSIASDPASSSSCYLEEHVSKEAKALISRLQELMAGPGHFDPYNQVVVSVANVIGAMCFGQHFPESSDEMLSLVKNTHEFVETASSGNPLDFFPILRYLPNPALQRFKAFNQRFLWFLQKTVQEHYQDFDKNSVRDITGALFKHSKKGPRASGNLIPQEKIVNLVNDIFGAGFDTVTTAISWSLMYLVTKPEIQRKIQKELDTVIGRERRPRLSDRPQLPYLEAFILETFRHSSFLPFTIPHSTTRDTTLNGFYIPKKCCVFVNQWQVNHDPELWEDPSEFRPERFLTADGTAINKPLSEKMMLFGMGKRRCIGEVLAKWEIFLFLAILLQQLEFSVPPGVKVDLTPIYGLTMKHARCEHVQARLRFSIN", "assay": "Inhibition of recombinant CYP enzymes (rCYP), CYP1A2"}, "[5]": {"biological_target": "T2, CYP1A2", "assay": "Inhibition of CYP enzymes in human liver microsomes (HLM), CYP1A2"}}}
{"smiles": "CNc1nc(Nc2ccc(-n3cnc(C)n3)c(OC(F)F)c2)nc2c1C(C)(C)CC2c1ccc(F)cc1", "note": "(single isomer, unassigned) [Enantiomer 1, N2-(3-(difluoromethoxy)-4-(3-methyl-1H-1,2,4-triazol-1-yl)phenyl)-7-(4-fluorophenyl)-N4,5,5-trimethyl-6,7-dihydro-5H-cyclopenta[d]pyrimidine-2,4-diamine]", "values": [{"measurement": "IC50", "setting": "[1]", "value": "> 20", "unit": "µM"}, {"measurement": "IC50", "setting": "[2]", "value": "> 20", "unit": "µM"}, {"measurement": "IC50", "setting": "[3]", "value": "8 to 10", "unit": "µM"}, {"measurement": "IC50", "setting": "[4]", "value": "> 20", "unit": "µM"}, {"measurement": "IC50", "setting": "[5]", "value": "> 40", "unit": "µM"}, {"measurement": "IC50 Ratio 1A2", "setting": "[5]; HLM, IC50 shift 0 vs 30 min preincubation (TDI ratio)", "value": 1.0}, {"measurement": "IC50", "setting": "[5]; read-out: IC50-30 min 1A2, HLM, 30 min preincubation with NADPH", "value": "> 40", "unit": "µM"}]}
